Data reported in US7232646B2, “Low-viscous, radiation curable formulation, particularly for the stereo-lithographical production of earpiece” (Dreve-Otoplastik GmbH, priority 2003, dated 2007).

Assay: Window pane method for critical energy Ec and laser penetration depth Dp
Type: physicochemical
Conditions: inhibitor added to resin formulation; for influence of inhibitor concentration on laser penetration depth Dp: FIGS. 1 and 3; for influence of inhibitor concentration on critical energy Ec: FIGS. 2 and 4
Description: Into the mixture according to the invention, 2,2,6,6-tetramethylpiperdine-1-yloxy (free radical) is added. The influence of the concentration of the 2,2,6,6-tetramethylpiperdine-1-yloxy (free radical) in the exemplary formalation 1 upon the penetration depth of the laser beam and energy has been shown in FIGS. 1 and 2. The laser penetration depth and the critical energy are determined by means of the window pane method described by P. F. Jacobs and D. R. Read in Rapid Prototyping and Manufacturing of the Society of Manufacturing Engineers, Dearborn, Mich. (1992), 1st, ed., pgs. 263-280. […] This influence of the inhibitor 2,2,6,6-tetramethylpiperdine-1-yloxy (free radical) upon the relevant parameters Ec (critical energy in mJ cm^−2) and Dp (laser penetration depth in mils) of the stereolithographic resin, the effect differing from the influence of the inhibitors like, for example, hydroquinone-monomethylether which are added to stereolithographic resins in accordance with the state of the art. The influence of the hydroquinonemonomethylether on the parameters Ec and Dp in the exemplary formulations 2 is shown in FIGS. 3 and 4.
The relevant parameters for the use of the above mentioned resins in stereolithography are collected in Table 1. All viscosity measurements were carried out at 23° C. with a CVO 120 rheometer of Bohlin Instruments. The determination of the bend strength, the modulus of elasticity and the elongation were carried out in accordance with EN ISO 178 (1996) with a Zwick 1—test machine of the Zwick firm. For the determination of the Ec and Dp values by means of the above mentioned window pane method, the average value from 10 window pane sample bodies was determined. The sample bodies were produced with a Viper Si^2 SLA apparatus equipped with an ND:YVO4 solid body laser. The green bodies were after hardened with a stroboscope lighting unit Sonolux PR from Innovation Meditech by means of 4000 flashes.

Row | Structure (SMILES) | influence of inhibitor concentration on laser penetration depth Dp | influence of inhibitor concentration on critical energy Ec
1 | CC1(C)CCCC(C)(C)N1[O] [2,2,6,6-tetramethylpiperdine-1-yloxy (free radical)] | only a limited change in the penetration depth | surprising increase in the critical energy
2 | COc1ccc(O)cc1 [hydroauinonemonomethylether, hydroquinone-monomethylether] | greater than in the case of the use of the 2,2,6,6-tetramethyl piperdine-1-yloxy (free radical) | can only be adjusted by significantly higher concentrations
